Values of other authors as cited in patent publication US6265392A, “Low oxygen content compositions of 1α, 25-dihydroxycholeclciferol” (Abbott Laboratories, priority 2000, dated 2001).

Assays:
[1] = free molecules and other reactive forms of oxygen; in solution
[2] = tested on: intestinal absorption of calcium and phosphorous; details: in vivo
[3] = tested on: renal osteodystrophy, hypoparathyroidism, osteomalacia, osteoporosis, hepatic osteodystrophy, vitamin D-resistant rickets, vitamin D-dependent rickets …; details: children and adults; literature

For `C=C1/C(=C\C=C2/CCC[C@]3(C)[C@@H]([C@H](C)CCCC(C)(C)O)CC[C@@H]23)C[C@@H](O)C[C@@H]1O` [1α,25-dihydroxycholecalciferol], the “Solubility in organic solvents” value (organic solvents) is given as “soluble in organic solvents”, the Solubility in water (water) is given as “practically insoluble in water” and the Sensitivity to oxygen [1] is given as “sensitive to the presence of oxygen”. The “Effect on intestinal absorption of calcium and phosphorous” value [2] was “stimulates intestinal absorption of calcium and phosphorous” and the Treatment outcome [3] was “successful treatment”.
